According to patent publication US20260306488A1, “FUNCTIONAL PROTECTIVE AGENT FOR ORGAN OR TISSUE” (TOHOKU UNIVERSITY, priority 2023, published 2026):

How the values were obtained:
[1] = system: diabetes model mouse (db/db mouse); assay: Plasma uremic substances (m1A and TMAO) in diabetes model mouse; assay type: in vivo, mouse (BKS-db/db); conditions: diabetes model cGP group (cGP in diet) vs diabetes model normal diet group, after 5-week feeding, Unpaired t-test p<0.01
Method: Next, in order to confirm that the present compound reduces chronic inflammation and resulting cellular damage, and prevents vascular complication in a diabetes model, cGP was administered to a diabetes model mouse (db/db mouse) to analyze blood concentrations of two uremic substances (1-methyladenosine [m1A] and trimethylamine-N-oxide [TMAO]).
(§1) The analysis using a diabetes model mouse was performed according to the following procedures through:
[1] Diabetes model mice (BKS-db/db mice, purchased from Japan CLEA) having been fed a normal diet (CE-2, manufactured by Japan CLEA) were grouped into a diabetes model normal diet group (n=10) to be fed the normal diet, and a diabetes model cGP group (n=10) to be fed the normal diet containing cGP.
[2] After feeding the mice for 5 weeks, blood samples were harvested from the above two groups (the diabetes model normal diet group, and the diabetes model cGP group), and plasma samples were prepared according to a usual method.
[3] The thus prepared plasma samples were used to measure blood concentrations of two uremic substances (m1A and TMAO) by mass spectrometry using LC-MS/MS (manufactured by Shimadzu Corporation) (see FIG. 7).

[2] = system: diabetes model mouse (db/db mouse); assay: Plasma creatinine, phenyl sulfate and Ac6Lys in diabetes model mouse; assay type: in vivo, mouse (BKS-db/db)
Method: (§2) Next, in order to confirm that the present compound protects kidney function and liver function in a diabetes model, cGP was administered to a diabetes model mouse (db/db mouse) to analyze blood concentrations of two uremic substances (creatinine and phenyl sulfate), as well as a blood concentration of a factor leading to renal failure in a patient with type 1 diabetes (N6-acetyllysine [Ac6Lys]), and additionally, pathological tissues of liver and blood concentrations of three liver function markers (ALT, AST, and γGTP) and two lipids (total cholesterol and TG) were analyzed.
as §1
[1] Wild-type mice (BKS-m+/m+ mice, purchased from Japan CLEA) having been fed a normal diet (CE-2, manufactured by Japan CLEA) were grouped into a wild-type normal diet group (n=5) to be fed the normal diet, and a wild-type cGP group (n=4) to be fed the normal diet containing cGP. Besides, diabetes model mice (BKS-db/db mice; purchased from Japan CLEAR) having been fed the normal diet were grouped into a diabetes model normal diet group (n=4) to be fed the normal diet, and a diabetes model cGP group (n=4) to be fed the normal diet containing cGP. Blood samples were harvested from the diabetes model cGP group, and plasma samples (referred to as the “plasma samples after 0-week feeding”) were prepared according to a usual method.
[2] After feeding the mice for 6 weeks, blood samples were harvested from the above four groups (the wild-type normal diet group, the wild-type cGP group, the diabetes model normal diet group, and the diabetes model cGP group), plasma samples (referred to as the “plasma samples after 6-week feeding”) were prepared according to a usual method, and then, liver tissues were harvested, fixed in 10% neutral-buffered formalin, and embedded in paraffin, and the resultant paraffin-embedded liver tissues were sliced to prepare liver tissue sections.
[3] The thus obtained “plasma samples after 0-week feeding” and “plasma samples after 6-week feeding” were used to measure blood concentrations of the three substances (creatinine, phenyl sulfate, and Ac6Lys) (see FIGS. 5 and 6), and blood concentrations of three liver function markers (ALT, AST, and γGTP) and two lipids (total cholesterol and TG) by mass spectrometry using LC-MS/MS (manufactured by Shimadzu Corporation). Besides, the liver tissue sections prepared as described above were used to perform analysis by Hematoxylin and Eosin (HE) staining method according to a usual method (see FIG. 4).

[3] = system: diabetes model mouse (db/db mouse); assay: Liver tissue analysis by HE staining in diabetes model mouse; assay type: in vivo, mouse (BKS-db/db); conditions: diabetes model cGP group (cGP in diet) vs diabetes model normal diet group; after 6-week feeding; FIG. 4
Method: as §2, §1
[1] Wild-type mice (BKS-m+/m+ mice, purchased from Japan CLEA) having been fed a normal diet (CE-2, manufactured by Japan CLEA) were grouped into a wild-type normal diet group (n=5) to be fed the normal diet, and a wild-type cGP group (n=4) to be fed the normal diet containing cGP. Besides, diabetes model mice (BKS-db/db mice; purchased from Japan CLEAR) having been fed the normal diet were grouped into a diabetes model normal diet group (n=4) to be fed the normal diet, and a diabetes model cGP group (n=4) to be fed the normal diet containing cGP. […]

[4] = system: adenine-fed renal failure model mouse; assay: Kidney tissue analysis by Masson's Trichrome Staining in adenine-fed renal failure model mouse (ratio of renal tubules); assay type: in vivo, mouse (male C57BL/6); conditions: adenine-fed cGP group (0.0025% cGP in diet) vs adenine-fed control group; FIG. 2A, Dunnett's test p<0.01; FIG. 2 legend says after 2-week feeding, method says tissue harvested at 3 weeks
Method: (§3) In order to confirm that a present compound has an effect of protecting kidney function and liver function in a renal failure model, 2,5-diketopiperazine (cGP; see Table 1) encompassed in the present compound was used for performing analysis in which the cGP is administered to a model mouse with chronic renal failure induced by feeding adenine (hereinafter referred to as the “adenine-fed renal failure model mouse”) to analyze the blood concentration of a uremic substance (creatinine), that is, an indicator of kidney function, and a ratio of renal tubules, as well as to analyze blood concentrations of three liver function markers (ALT, AST, and γGTP) and two lipids (total cholesterol and TG). The adenine-fed renal failure model mouse is a mouse that develops kidney damage because fed adenine crystallizes as insoluble 2,8-dihydroxyadenine in the renal tubules (Cozzolino, M. et al. Kidney Int. 64, 441-450 (2003), Tamagaki, K. et al. Nephrol. Dial. Transplant 21, 651-659 (2006)).
(§4) The analysis using an adenine-fed renal failure model mouse was performed according to the following procedures through:
(§5) [1] 8-Week old male C57BL/6 mice (purchased from Japan CLEA) were grouped into a normal diet group (n=6) to be fed a normal diet (CE-2, manufactured by Japan CLEA), and an adenine-fed group (n=12) to be fed the normal diet containing 0.2% adenine (manufactured by Wako).
[2] […]

[5] = system: adenine-fed renal failure model mouse; assay: Plasma markers (creatinine, ALT, total cholesterol) in adenine-fed renal failure model mouse; assay type: in vivo, mouse (male C57BL/6); conditions: plasma samples after 2-week feeding
Method: as §3, §4, §5
[2] After feeding the mice for 6 weeks, the adenine-fed group was grouped into an adenine-fed control group (n=6) to be fed the normal diet, and an adenine-fed cGP group (n=6) to be fed the normal diet containing cGP. The normal diet containing cGP was prepared by mixing cGP (manufactured by Bachem) with the normal diet to a final concentration of 0.0025%.
[3] After feeding the mice for 2 weeks, blood samples were harvested from each of the three groups (the normal diet group, the adenine-fed control group, and the adenine-fed cGP group) to prepare plasma samples (referred to as “plasma samples after 2-week feeding”) according to a usual method.
[4] […]

O=C1NCC(=O)N2CCCC12 (centres unmarked) [cGP, cyclo-glycyl-proline]
m1A (1-methyladenosine) concentration in plasma ([1]; FIG. 7A): significantly reduced | TMAO (trimethylamine-N-oxide) concentration in plasma ([1]; FIG. 7B): significantly reduced | creatinine concentration in plasma ([2]; diabetes model cGP group (cGP in diet) vs diabetes model normal diet group, plasma samples after 6-week feeding, FIG. 5, Dunnett's test): significantly decreased | blood concentration of creatinine, week 6 vs week 0 ([2]; diabetes model cGP group (cGP in diet), week 6 after feeding compared to week 0, FIG. 6A, Paired t-test p<0.05): significantly lower | blood concentration of phenyl sulfate, week 6 vs week 0 ([2]; diabetes model cGP group (cGP in diet), week 6 after feeding compared to week 0, FIG. 6B, Paired t-test p<0.05): significantly lower | blood concentration of N6-acetyllysine (Ac6Lys), week 6 vs week 0 ([2]; diabetes model cGP group (cGP in diet), week 6 after feeding compared to week 0, FIG. 6C, Paired t-test p<0.05): significantly lower | fat droplets in the liver [3]: reduced | ratio of renal tubules in the renal cortex [4]: significantly increased | ALT concentration in plasma ([5]; adenine-fed cGP group (0.0025% cGP in diet) vs adenine-fed control group, FIG. 3A, Dunnett's test p<0.05): significantly decreased | total cholesterol concentration in plasma ([5]; adenine-fed cGP group (0.0025% cGP in diet) vs adenine-fed control group, FIG. 3B, Dunnett's test p<0.05): significantly decreased | creatinine concentration in plasma ([5]; adenine-fed cGP group (normal diet containing 0.0025% cGP) vs adenine-fed control group, FIG. 1, Dunnett's test): significantly decreased
